Assays:
[1] = system: RET, ERK1/2 and AKT phosphorylation in PC9^CCDC6-RET cells; assay: Western blot of downstream signaling; format: cell-based; settings: 6 hours
Description: FIG. 4A is a western blot for PC9^EV and PC9^CCDC6-RET cells treated with 100 nM afatinib, 1 μM osimertinib, Compound 1, or combinations thereof for 6 hours and harvested for western blotting with the antibodies.
FIG. 5A is a western blot for PC^9V and PC9^CCDC6-RET cells treated with 100 nM afatinib, 1 μM osimertinib, cabozanitinib, or combinations thereof for 6 hours and harvested for western blot analysis.
(§1) Afatinib, osimertinib, and cabozantinib were purchased from Selleck Chemicals and resuspended in DMSO. Phospho-EGFR (Y1068), EGFR, pBRAF (Ser445), RET, pAKT (Ser473), AKT, pMEK1/2 (Ser217/221), MEK1/2, pERK1/2 (Thr202/204), ERK1/2, and Actin antibodies were purchased from Cell Signaling Technology. pRET (Y1062) antibody was obtained from Abcam.

RET oncogenic mutants = settings: cellular systems; cited from earlier work
RET-driven models = settings: several RET-driven models; cited from earlier work
[2] = system: NSCLC patients with RET-alterations; settings: Subbiah et al. 2018; cited from earlier work
[3] = system: PC9^CCDC6-RET cells (EGFR del19); assay: Cell proliferation / viability (CellTiter-Glo); format: cell-based
Description: (§2) PC9 and MGH134 cells expressing the CCDC6-RET gene fusion or empty vector (EV) were treated with 1 μM osimertinib or vehicle (VEH) and cell proliferation determined over the course of five days (ratio compared to the beginning of treatment). Data shown are the mean±s.e.m. of three independent biological replicates.
(§3) Data are shown as a percentage of vehicle treated control and are the mean±s.e.m of three independent biological replicates.
as §3
(§4) For drug dose-response assays, cells were seeded into 96-well plates 24 hours before addition of drug. Cell proliferation was determined by CellTiter-Glo assay (Promega) 72-120 hours after adding drug, using standard protocols. For time-course experiments, multiple plates were seeded and drugged in identical fashion, and at the indicated time points, the plates were frozen at −80° C.; all plates in an experiment were developed with CellTiter-Glo simultaneously. Luminescence was measured with SpectraMax i3x Multi-Mode Microplate Reader (Molecular Devices).
(§5) To determine whether CCDC6-RET expression is sufficient to cause acquired drug resistance, CCDC6-RET fusion expressing cell line models were generated by lentiviral infection of PC9 (EGFR del19) and MGH134 (EGFR L858R/T790M) cells (FIG. 2).

[4] = system: MGH134^CCDC6-RET cells (EGFR L858R/T790M)
Description: as §2, §3, §4, §5

PC9 parental cells (EV) = assay: Cell proliferation (CellTiter-Glo); format: cell-based; settings: 1 μM osimertinib, over five days
[5] = system: MGH134 parental cells (EV); assay: Cell proliferation (CellTiter-Glo); format: cell-based; settings: 1 μM osimertinib, over five days
[6] = system: RET, ERK1/2 and AKT phosphorylation in MGH134^CCDC6-RET cells; assay: Western blot of downstream signaling; format: cell-based; settings: EGFR inhibitor alone (1 μM osimertinib), 6 hours
Description: FIG. 4B is a western blot for MGH134^EV and MGH134^CCDC6-RET cells treated with 1 μM osimertinib, cabozantinib, and Compound 1 or combinations thereof for 6 hours and harvested for western blotting with the indicated antibodies.
as §1

[7] = 1 μM osimertinib, over five days

SMILES | RET phosphorylation ([1]; Compound 1 alone) | downstream ERK or AKT phosphorylation ([1]; Compound 1 alone) | potency of inhibition of kinase activity (RET oncogenic mutants) | antitumor efficacy (RET-driven models) | clinical responses [2] | off-target toxicity [2] | proliferation rate ([3]; 1 μM osimertinib vs vehicle) | cell proliferation [3, 7] | proliferation rate ([4]; 1 μM osimertinib vs vehicle) | cell proliferation [4, 7] | cell proliferation (PC9 parental cells (EV)) | cell proliferation [5] | RET, ERK1/2, and AKT phosphorylation ([1]; 100 nM afatinib or 1 μM osimertinib alone) | RET, ERK1/2, and AKT phosphorylation [6]
CO[C@]1(C(=O)N[C@@H](C)c2ccc(-n3cc(F)cn3)nc2)CC[C@H](c2nc(C)cc(Nc3cc(C)[nH]n3)n2)CC1 [Compound 1, (1S,4R)—N—((S)-1-(6-(4-fluoro-1H-pyrazol-1-yl)pyridine-3-yl)ethyl)-1-methoxy-4-(4-methyl-6-((5-methyl-1H-pyrazol-3-yl)amino)pyrimidin-2-yl)cyclohexanecarboxamide] | suppressed | did not decrease | low nanomolar potency | dose-dependent antitumor efficacy | durable clinical responses | without notable off-target toxicity | – | – | – | – | – | – | – | –
C=CC(=O)Nc1cc(Nc2nccc(-c3cn(C)c4ccccc34)n2)c(OC)cc1N(C)CCN(C)C [osimertinib] | – | – | – | – | – | – | decreased | continued to proliferate | decreased | continued to proliferate | net decrease in cell viability | net decrease in cell viability | retained | retained

— US20210308134A1, “TREATMENT OF EGFR-MUTANT CANCER” (BLUEPRINT MEDICINES CORPORATION, priority 2018, published 2021)
